Assay results taken from patent US20240165129A1, “METHODS OF TREATING PAIN AND DEPRESSION” (priority 2022, published 2024).
Where two headings read alike, the source gives them in different places.

Columns and labels:
[1] = target: T1, homomeric ASIC1a channels (Homo sapiens, UniProt P78348); format: cell-based
T1 construct: expressed in transfected cells
T1 sequence (P78348 1-528): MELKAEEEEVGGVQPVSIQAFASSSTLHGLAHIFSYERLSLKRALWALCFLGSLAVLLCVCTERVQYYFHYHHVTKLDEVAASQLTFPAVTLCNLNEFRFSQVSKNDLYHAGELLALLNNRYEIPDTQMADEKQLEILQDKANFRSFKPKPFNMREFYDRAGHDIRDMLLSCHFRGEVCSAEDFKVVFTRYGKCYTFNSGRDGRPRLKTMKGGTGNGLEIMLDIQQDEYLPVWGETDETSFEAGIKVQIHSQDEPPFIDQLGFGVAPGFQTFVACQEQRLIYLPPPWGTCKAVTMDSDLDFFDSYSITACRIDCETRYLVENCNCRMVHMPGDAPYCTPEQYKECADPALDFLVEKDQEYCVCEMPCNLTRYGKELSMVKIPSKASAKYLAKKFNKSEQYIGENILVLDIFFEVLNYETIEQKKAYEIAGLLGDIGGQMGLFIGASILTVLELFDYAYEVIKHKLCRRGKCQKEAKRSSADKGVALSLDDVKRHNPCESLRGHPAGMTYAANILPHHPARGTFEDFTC

[2] = test system: ASIC currents (ASIC1a-like) in cortical neurons; assay: Patch-clamp recording of ASIC (ASIC1a-like) currents in primary cultured mouse cortical neurons; format: cell-based
homomeric ASIC3 = target: T2, homomeric ASIC3 (Rattus norvegicus, UniProt O35240); assay: Patch-clamp recording of ASIC3 currents in CHO cells with transient expression
T2 sequence (O35240 1-533): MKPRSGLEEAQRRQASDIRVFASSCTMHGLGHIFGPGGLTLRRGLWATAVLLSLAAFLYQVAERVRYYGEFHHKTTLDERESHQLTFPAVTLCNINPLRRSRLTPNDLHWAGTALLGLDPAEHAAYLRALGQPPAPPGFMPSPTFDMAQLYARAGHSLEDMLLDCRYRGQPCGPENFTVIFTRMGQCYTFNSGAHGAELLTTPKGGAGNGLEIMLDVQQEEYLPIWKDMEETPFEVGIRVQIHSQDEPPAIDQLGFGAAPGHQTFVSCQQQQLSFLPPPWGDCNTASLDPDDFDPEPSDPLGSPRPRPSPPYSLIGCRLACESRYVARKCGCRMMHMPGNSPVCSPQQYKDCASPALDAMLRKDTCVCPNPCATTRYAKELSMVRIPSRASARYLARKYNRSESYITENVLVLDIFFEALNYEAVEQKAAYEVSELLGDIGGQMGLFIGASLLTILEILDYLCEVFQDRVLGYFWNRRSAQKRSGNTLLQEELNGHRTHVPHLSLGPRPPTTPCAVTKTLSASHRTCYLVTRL
Experimental: Chinese hamster ovary (CHO) cells were cultured in F12-K medium (Invitrogen) plus 10% fetal bovine serum, 50 units/nal penicillin, and 50 μg/m1 streptomycin. At ˜50% confluence, CHO cells were co-transfected with cDNAs for rat ASIC1β, ASIC2a, or ASIC3, and that for GFP. GFP-positive cells were used for electrophysiological recordings 24-72 h after transient transfection.
ASIC currents were recorded using patch-clamp techniques. Pipette solution contained (mM): 140 CsF, 1 CaCl2, 2 MgCl2, 11 EGTA, 2 tetraethylammonium chloride, 10 HEPES and 4 MgATP, pH 7.3 adjusted with CsOH, 290-300 mOsm. Extracellular Fluid (ECF) contained (mM): 140 NaCl, 5.4 KCl, 2 CaCl2, 1 MgCl2, 10 glucose, and 10 HEPES (320-330 mOsm). A multi-barrel perfusion system (SF-77 Warner Instruments, Hamden, CT) was used to obtain a rapid exchange of ECFs. Currents were recorded with Axopatch 200B amplifier, filtered at 2 kHz, and digitized at 5 kHz using Digidata 1332A. ASIC currents were induced by rapid perfusion of the cells with acidic ECF for 4 seconds. Unless otherwise stated, cells were clamped at a holding potential of −60 mV. […] Data were excluded for statistical analysis when access resistance was >10 MΩ or leak current was >100 pA.
Therefore, the study used pH 6.0 and 4.5 to activate ASIC1β and ASIC2a currents, respectively. […]

[3] = test system: Sprague-Dawley rats (CFA-induced pain); assay: CFA rat pain model, paw pressure (vocalization) and mechanical hypersensitivity tests
Experimental: Male Sprague-Dawley rats (150-175 g) are acclimatized for a week before testing. Rats are housed in a controlled room with a 12-hour light/dark cycle, with free access to food and water. Rats are housed 4 per cage except after the bilateral implantation experiment (2 per cage and individually following surgery). Pain is induced by a single unilateral intra-articular injection of 50 μl complete Freund's adjuvant (CFA, heat-killed Mycobacterium 2 mg/ml) in the right hindpaw under isoflurane (4%) anaesthesia. Sham rats are injected with 50 μl of vehicle in the same conditions. Behavioral experiments are performed 14-16 days after pain induction, when rats weighed between 260 to 320 g. […]
The effect of Triol (0.05 μg/0.5 μl/side) 15 min before the behavioral tests is evaluated in sham and Pain rats, 14 to 16 days following pain induction. The behavior of each rat is then assessed in the different tests (i.e., social interaction or elevated plus maze for anxiety, and paw pressure or paw immersion for pain, see below).
Mechanical hypersensitivity in sham and Pain animals is assessed with an analgesiometer (paw pressure test). Nociceptive thresholds are measured by applying increased pressure to the ipsilateral ankle of unrestrained rats until a vocalisation is obtained. […] Vocalization threshold is assessed at baseline and 15, 25 and 45 min following Triol, mambalgin-1 or saline administration.

[4] = after 30 min washout (data not shown)
[5] = 10 μM, before and after perfusion for 5 min

## CC(C)CCC[C@@H](C)[C@H]1CC[C@H]2[C@@H]3C[C@@H](O)[C@@]4(O)C[C@@H](O)CC[C@]4(C)[C@H]3CC[C@]12C [Triol, cholestane-3β, 5α, 6β-triol]
[1]; 1 μM Triol, within 5 minutes of application, pH drop 7.4 to 6.0, n=5, read-out: inhibition of ASIC1a currents
  inhibition at 1 µM: ~20%
[1]; 10 μM Triol, within 5 minutes of application, pH drop 7.4 to 6.0, n=5, read-out: inhibition of ASIC1a currents
  inhibition at 10 µM: ~40%
[1]; 10 μM, once/one min, within 5 min of recording, read-out: inhibition of ASIC current, higher stimulatory frequency
  inhibition at 10 µM: ~40%
[1]; 10 μM, once/two min, within 5 min of recording, read-out: inhibition of ASIC1a currents, lower stimulatory frequency
  inhibition at 10 µM: ~20%
[1]; [4]
  reversibility of ASIC1a inhibition: irreversible
[2]; [5]
  effect on current-voltage relationship (IV): does not affect the current-voltage relationship
  shift in the pH dose-response of ASIC peak currents: not a significant shift
[2]; 10 μM, within 5 min of application/perfusion
  decrease of ASIC currents in cortical neurons: ~40%
[2]; [4]
  reversibility of ASIC current inhibition in cortical neurons: irreversible
[2]; holding potential −60 mV vs −30 mV
  voltage dependence of inhibitory activity: no significant change in the inhibitory activity
Homomeric ASIC3; pH 5.5, read-out: inhibition of ASIC3 peak current component
  inhibition at 10 µM: ~23%
Homomeric ASIC3; pH 5.5, read-out: inhibition of ASIC3 sustained current component
  inhibition at 10 µM: ~54%
[3]
  effects in the pain tests relative to commonly used pain relief drugs: independent of and additive to
  pain-related behavior in vocalization and mechanical hypersensitivity tests: decreased levels of pain-related behavior
